Experimental data taken from patent US10464920B2, “Vicinal primary diamines associated with metal and/or free radical chelation motifs, and active against carbonyl and oxidative stress, and use thereof” (UNIVERSITE AMIENS PICARDIE JULES VERNE, priority 2015, dated 2019).

Columns and labels:
[1] = ORACFL test (Oxygen Radical Absorbance Capacity) using fluorescein/AAPH; type: physicochemical; settings: compounds at 10 μM; for ORACFL: mean ± SEM of three independent experiments in triplicate
Experimental: The antioxidant properties of the compounds according to the invention were evaluated using a ORACFL test using fluorescein (J. Agric. Food Chem., 2004 52, 48-54; J. Agric. Food Chem., 2005, 53, 4290-4302). As such, peroxide radicals, generated in the presence of AAPH (2,2′-azobis(2-methylpropionamidine)dihydrochloride) at 37° C., react with this fluorescent sensor in order to give a non-fluorescent product. The protective effect of the test compounds can then be determined by following the decay curve of the fluorescence of the fluorescein over time and be measuring the area under the curve (AUC) of the sample in relation to that of a control corresponding to an absence of antioxidant.
The trolox (6-hydroxy-2,5,7,8-tetramethylchroman-2-carboxylic acid), a water-soluble analogue of vitamin E, is used as a standard for calculating the antioxidant capacity (ORACFL) of the compounds tested at 10 μM, expressed in […] of tested compound. This value is as such obtained using the straight-line calibration equation giving the area under the curve according to the various concentrations of trolox (Bioorg. Med. Chem., 2015, 23, 1135-1148) (FIG. 11).
A solution of fluorescein (FL) (12 nM; 150 μL) is introduced into a black 96-well plate (Dutscher, Brumath, France). The compounds to be tested (1-20 μM; 25 μL) or trolox (1-50 μM; 25 μL) dissolved in D-PBS are added into each well. After equilibration of the plate during an incubation at 37° C. for a minimum of 30 min, the radical reactions are initiated using a solution of AAPH prepared extemporaneously (30 mM; 25 μL). The fluorescence (λEx: 485 nm; λEm: 520 nm) is measured every 90 seconds for 60 cycles using a temperature-controlled Tecan Infinite® 200 PRO microplate reader (measurements taken in triplicates during three independent experiments).

[2] = system: murine endothelial brain cells (bEnd.3); experiment: Cytotoxicity, cellular viability (CCK-8/WST-8) on bEnd.3; type: cell-based
Experimental: (§1) The cellular viability is evaluated by a colorimetric method based on the detection of the conversion of a salt of the tetrazolium (WST-8) by the metabolically active cells (CCK-8 kit, Sigma, Lyons, France) (Molecules, 2014, 19(8), 12048-12064; J. Pharmacol. Toxicol. Methods., 2007, 56(1), 58-62). Living cells have mitochondrial dehydrogenases that reduce the WST-8 (2-(2-methoxy-4-nitrophenyl)-3-(4-nitrophenyl)-5-(2,4-disulfophenyl)-2H-tetrazolium), monosodium salt) to formazan of an orange colour, which dissolves directly in the culture medium in the presence of 1-Methoxy PMS (1-methoxy-5-methylphenazinium methyl sulphate). After an incubation for 1 h at 37° C., the absorbance of the formazan is measured at 450 nm. The absorbance is directly proportional to the number of living cells.
(§2) Briefly, the cells are inoculated in 96-well plates at a rate of 5.10^3 cells per well in 100 μL of the suitable medium until subconfluence. The cells are then washed with D-PBS, then treated with various concentrations (10 μM, 100 μM) of the products to be tested in triplicates for 24 and 48 h. A positive control is carried out with 10% of DMSO. The CCK-8 (10 μL) solution is then added to each well for an incubation for 1 h at 37° C. The measurement of the absorbance is taken at 450 nm using a Perkin Elmer 2103 Envision® microplate reader.
(§3) The viability of the cells is expressed as a % of the control (untreated cells) by the mean±standard deviation of triplicates forming a representative experiment or of three independent experiments conducted in triplicate.

[3] = system: rat pheochromocytoma cells, treated as neuronal cells (PC12); experiment: Cytotoxicity, cellular viability (CCK-8/WST-8) on PC12; type: cell-based
Experimental: as §1, §2, §3

[4] = system: human fibroblasts (MRC-5); experiment: Cytotoxicity, cellular viability (CCK-8/WST-8) on MRC-5; type: cell-based
Experimental: as §1, §2, §3

[5] = Formation of adducts with MGO, kinetic study by HPLC; type: physicochemical; settings: compound 10 mM, MGO 20 mM, 37° C., after 15 min of incubation
Experimental: The compounds to be tested are incubated at 37° C. in the presence of MGO or of MDA. A kinetic study aiming to report on the formation of adducts with the MGO or MDA is then carried out via HPLC analysis.
The compounds to be tested (30 μmol) are dissolved in PBS (1.5 mL). An aqueous solution (qsp 1.25 mL) of MGO at 40% in water (250 μmol) is then prepared and in parallel, MDA bis-(diOEt)-acetal (250 μmol) is set to react with a solution of HCl 1N (2 eq) in water (qsp 1.25 mL) for 1 h at room temperature. An aqueous solution of NaOH 0.05N is also required to neutralise the reaction medium (5 mL).
The solution of the compound to be tested (625 μL—final concentration in the medium=10 mM) is then set to react with the solution of MGO or of MDA prepared extemporaneously (125 μL—final concentration in the medium=20 mM) in the presence of NaOH 0.05 N (0.5 mL).
The various mixtures are then incubated in the oven at 37° C. for 24 h.
A sampling of each mixture (100 μL) is taken at regular intervals of time (0.25; 0.5; 1; 5 and 24 h) and stored at −20° C. in order to stop the reaction. After dilution in a MeCN/H2O 98:2 mixture at room temperature, the HPLC analysis is carried out on a Shimadzu LCMS-2020 apparatus (UV chromatogram at 190 nm and mass spectrum in positive electrospray ionisation mode (ESI+)) after separation on the Waters Acquity column using a gradient of solvents H2O+HCOOH 0.1%/MeCN+HCOOH 0.1% (98/2 for 2 min, then 55/45 for 2 min and 45/55 for 3 min) with a flow rate of 0.3 mL/min at 40° C. and an injection of volume of 1 (“detection mode: scan, interface voltage: tuning file, DL voltage: 100 V, Q-array DC: 40 V, Q-array RF: 40 V”). A blank is first of all carried out using a solution containing the reaction medium without scavenger. Then, a free scavenger solution at 10 mM is used as a negative control and the carnosine as a reference of the literature. The proportion of adducts formed with the MGO or MDA (generally, tR=4.1 to 6.8 min) is then measured in relation to the quantity of remaining free scavenger (generally, tR=0.8 to 4.6 min) after measurement of the area under the curve of the corresponding peaks on the UV spectrum (measurements taken for a representative sample).

[6] = system: low-density lipoproteins (LDLs); experiment: Antiradical properties: inhibition of lipid peroxidation in AAPH-induced oxidation of LDLs; type: biochemical; settings: high concentration (100 μM)
Experimental: The antiradical properties of the various compounds are determined by inhibition of the lipid peroxidation in the in vitro model of the oxidation of the low-density lipoproteins (LDLs) (Free Radic. Biol. Med., 1992, 13, 341-390). The lipid peroxidation is initiated by the attack by free radicals of a double bond of a polyunsaturated fatty acid present in the LDLs. […] Once initiated, the oxidation of the LDLs is a chain reaction of lipid peroxidation generated by the free radicals. The oxidation in vitro of the LDLs is induced at 37° C. by the adding of the water-soluble compound 2,2′-Azobis(2-methylpropionamidine)dihydrochloride (AAPH), which generates free radicals during the spontaneous thermal breakdown thereof
Briefly, the oxidation, carried out in a 96-well plate, is induced at 37° C. by adding 20 μL of a solution of AAPH at 2 mM in D-PBS at 160 μL of LDL (100 μg/mL) in the presence or absence of 20 μL of the various solutions of the compounds to be tested dissolved in D-PBS (0.1 to 100 μM in final concentrations). The LDLs alone without adding AAPH are used as a negative control. Each oxidation is carried out in double. During the oxidation, the formation of the conjugated dienes is followed by the measurement of the optical density at 234 nm every 10 minutes for 8 h at 37° C. using a temperature-controlled TECAN spectrophotometer. The vitamin E (α-tocopherol) which is a powerful antioxidant recognised in this in vitro model is used as a reference molecule (J. Nutr. Biochem., 2012, 23, 845-51).

[7] = MRC-5, 10 μM, 24 h of treatment
[8] = MRC-5, 10 μM, 48 h of treatment
[9] = MRC-5, 100 μM, 24 h of treatment
[10] = MRC-5, 100 μM, 48 h of treatment

Q: With `NCCC(=O)N[C@@H](Cc1cnc[nH]1)C(=O)O` [Carnosine, carnosine, reference compound] as the compound, how does the “antioxidant capacity (ORACFL), in words” value [1] read?
A: very low activity

Q: And the ORACFL [1]?
A: 0.08 ± 0.05 μmol TE/μmol

Q: Which results are given for `NCC(N)CCC(=O)N1CCN(C(=O)c2cc(O)c(O)c(O)c2)CC1` (stereo not shown) [Compound 30a, 4,5-diamino-1-(4-(3,4,5-trihydroxybenzoyl)piperazin-1-yl)pentan-1-one]?
A: ORACFL [1]: 0.89 ± 0.10 μmol TE/μmol; viability of the cells as a percentage of the untreated cells ([2]; mouse, 24 h, 10 μM): 117%; viability of the cells as a percentage of the untreated cells ([2]; mouse, 24 h, 100 μM): 96%; viability of the cells as a percentage of the untreated cells ([2]; mouse, 48 h, 10 μM): 95%; viability of the cells as a percentage of the untreated cells ([2]; mouse, 48 h, 100 μM): 108%; viability of the cells as a percentage of the untreated cells ([3]; rat, 24 h, 10 μM): 116%; viability of the cells as a percentage of the untreated cells ([3]; rat, 24 h, 100 μM): 140%; viability of the cells as a percentage of the untreated cells ([3]; rat, 48 h, 10 μM): 96%; viability of the cells as a percentage of the untreated cells ([3]; rat, 48 h, 100 μM): 113%; viability of the cells as a percentage of the untreated cells [4, 7]: 115%; viability of the cells as a percentage of the untreated cells [4, 8]: 101%; viability of the cells as a percentage of the untreated cells [4, 9]: 112%; viability of the cells as a percentage of the untreated cells [4, 10]: 103%

Q: Which ORACFL [1] does the source give for `NCC(N)CC(=O)N1CCN(C(=O)CCn2cccc(O)c2=O)CC1` (stereo not shown) [Compound 37d, 1-(3-(4-(3,4-diaminobutanoyl)piperazin-1-yl)-3-oxopropyl)-3-hydroxypyridin-2(1H)-one] here?
A: 1.21 ± 0.07 μmol TE/μmol

Q: For `NCC(N)CCC(=O)N1CCN(C(=O)CCn2cccc(O)c2=O)CC1` (stereo not shown) [Compound 37f, 1-(3-(4-(4,5-diaminopentanoyl)piperazin-1-yl)-3-oxopropyl)-3-hydroxypyridin-2(1H)-one], which “disappearance of the free scavenger to the benefit of adducts with the MGO” value [5] is on record?
A: almost total disappearance of the free scavenger

Q: And the ORACFL [1]?
A: 1.96 ± 0.24 μmol TE/μmol

Q: With `Cl.Cl.NCC(N)C(=O)N1CCNCC1` (stereo not shown) [Dap-Pip, reference compound] as the compound, how does the “antioxidant capacity (ORACFL), in words” value [1] read?
A: absence of activity

Q: And the ORACFL [1]?
A: 0 μmol TE/μmol

Q: What about the anti-radical effect [6] of the same compound?
A: does not show any anti-radical effect

Q: And the “viability of the cells as a percentage of the untreated cells” value ([2]; bEnd.3, 10 μM, 24 h of treatment)?
A: 123%

Q: And the “viability of the cells as a percentage of the untreated cells” value ([2]; bEnd.3, 10 μM, 48 h of treatment)?
A: 131%

Q: And the “viability of the cells as a percentage of the untreated cells” value ([2]; bEnd.3, 100 μM, 24 h of treatment)?
A: 103%

Q: What about the “viability of the cells as a percentage of the untreated cells” value ([2]; bEnd.3, 100 μM, 48 h of treatment) of the same compound?
A: 142%

Q: And the “viability of the cells as a percentage of the untreated cells” value ([3]; PC12, 10 μM, 24 h of treatment)?
A: 114%

Q: What about the “viability of the cells as a percentage of the untreated cells” value ([3]; PC12, 10 μM, 48 h of treatment) of the same compound?
A: 110%

Q: What about the “viability of the cells as a percentage of the untreated cells” value ([3]; PC12, 100 μM, 24 h of treatment) of the same compound?
A: 120%

Q: And the “viability of the cells as a percentage of the untreated cells” value ([3]; PC12, 100 μM, 48 h of treatment)?
A: 102%

Q: And the “viability of the cells as a percentage of the untreated cells” value [4, 7]?
A: 125%

Q: What about the “viability of the cells as a percentage of the untreated cells” value [4, 8] of the same compound?
A: 113%

Q: And the “viability of the cells as a percentage of the untreated cells” value [4, 9]?
A: 128%

Q: What about the “viability of the cells as a percentage of the untreated cells” value [4, 10] of the same compound?
A: 111%

Q: With `Cc1c(C)c2c(c(C)c1O)CCC(C)(C(=O)O)O2` (stereo not shown) [Trolox, 6-hydroxy-2,5,7,8-tetramethylchroman-2-carboxylic acid, reference compound] as the compound, how does the ORACFL [1] read?
A: 1 μmol TE/μmol
